In PMC5131319, “Occurrence, temporal trends, and half-lives of perfluoroalkyl acids (PFAAs) in occupational workers in China” (Scientific Reports, 2016):
Read-outs that look alike come from different tables or passages of the source.

Experiments:
[1] = set-up: method as in PMID 23980546, PMID 12499116, PMID 20236705; conditions: set value; cited from earlier work
[2] = PFAA concentration in serum of occupational workers (HPLC-ESI/MS/MS); format: in vivo, human; set-up: Serum PFAA level: unit: ng/mL
Experimental: The selected fluorochemical plant (Henxin Chemical Plant) in this study is one of the largest producers of PFOS-related chemicals in China and is located in Yingcheng, Hubei province. Perfluoroalkyl sulfonic acids (PFSAs) and perfluorotertiary amines are synthesized through an electro-chemical fluorination (ECF) process. We collected paired serum and urine samples from the occupational workers in the plant for five consecutive years, and the sampling activities were carried out in Nov. 2008, Nov. 2009, Nov. 2010, Dec. 2011, and Dec 2012, respectively. The Medical Research Ethics Committee, School of Medicine, Jianghan University, approved the ethics of this study, and all methods were performed in accordance with the relevant guidelines and regulations, moreover, all volunteers gave written informed consent. Demographic information of the donors, including gender, age, length of service, and work assignment, was collected with a questionnaire (Table S1). The sampled population included a total of 302 occupational workers, of which there were 89 female and 213 male participants. In total, 302 serum and 274 urine samples were collected.
The participants were told not to eat breakfast before the sampling, and morning urine samples and blood samples were collected. Serum was separated from the blood by centrifugation at 1100 × g at 4 °C for 10 min and then placed on ice. Serum samples were then transferred to our laboratory on the same day and stored in polypropylene containers at −20 °C until analysis.
All pre-treatment methods and instrument analysis of PFAAs in serum and urine samples are based on previous studies with minor modifications (see Supplementary Information)[3][31]. Based on the PFAA profiles in environmental matrices around the same plant in our previous study, only 3 main PFAAs, PFHxS, PFOA, and PFOS, were analyzed in the obtained serum and urine samples. Instrumental analysis of the PFAAs was performed by a HPLC-ESI/MS/MS system (HPLC: Waters 2695, MS: Waters Quattro Premier XE). The limits of detection (LODs) of PFHxS, PFOA, and PFOS were 0.020, 0.063, and 0.018 ng mL^−1 for serum samples and 0.008, 0.025, and 0.007 ng mL^−1 for urine samples, respectively. A procedural blank was performed for every batch of seven samples, and all of the blank levels were below the LODs. […] Details of quality assurance and quality control of the chemical analysis can be found in the Supplementary Information.

[3] = workers in another fluorochemical plant in China; cited from earlier work
[4] = cited from earlier work
[5] = Half-life estimated by annual decline rates of serum PFAAs (first-order model); format: in vivo, human
Description: Olsen et al.[21] found linear relationship between the logarithm of serum PFAAs concentration and time, and a first order model was adopted to estimate the half-lives of PFAAs. The elimination of PFAAs in humans was also described with the following equation: […]
If we set C(t) as 1/2C0, then the half-life
where k is the elimination rate constant. We calculated k using two approaches in the present study. In the first approach, k is defined as Cltotal/Vd, where Vd stands for the volume of distribution of PFAAs in the human body. Cltotal represents the total daily PFAAs clearance in the human body; for men and women older than 50, it refers to renal clearance, while for young women, it is defined as the sum of menstrual clearance and renal clearance. To keep consistency with other studies, Vd of PFOS and PFHxS were set at 230 mL kg^−1, and Vd of PFOA was set at 170 mL kg^−1 in this study. In the second approach, k is defined as the average annual decline rates of PFAAs in workers who participated in this study.
Serum PFAAs of workers were sequentially measured for 5 years, and they fluctuated during our sampling period, although different serum PFAAs decreased in certain years. […] For PFOA, 31 out of 42 workers decreased in the period of 2011–2012, and the serum PFOA concentration dropped by 41%. […] We assumed that there were no new inputs of PFAAs in these workers, and thus k in Eq (2) was set as the average annual serum PFAA decline rate. The half-lives of PFHxS, PFOA, and PFOS estimated by Eq (2) were 3.6, 1.7, and 1.9 years.

[6] = Fabric finishing agent department, N 8

O=S(=O)(O)C(F)(F)C(F)(F)C(F)(F)C(F)(F)C(F)(F)C(F)(F)F [PFHxS, perfluorohexane sulfonate]
Vd (volume of distribution in the human body) [1]: 0.23 L/kg
Serum concentration, mean ([2]; All workers, N 302): 1855 ng/mL
Serum concentration, median ([2]; All workers, N 302): 764 ng/mL
Serum PFAA level ([2]; Electrolytic Department, length of service 1-3 years): 960
Serum PFAA level ([2]; Electrolytic Department, length of service < 1 year): 197
Serum PFAA level ([2]; Electrolytic Department, length of service >3 years): 1116
Serum concentration, mean ([2]; Electrolytic department, N 74): 1469 ng/mL
Serum concentration, median ([2]; Electrolytic department, N 74): 1011 ng/mL
Serum concentration, range ([2]; Electrolytic department, N 74): 46.6 to 6759 ng/mL
Serum concentration, mean [2, 6]: 1956 ng/mL
Serum concentration, median [2, 6]: 1768 ng/mL
Serum concentration, range [2, 6]: 550 to 4690 ng/mL
Serum PFAA level ([2]; Management Office, length of service 1-3 years): 65.1
Serum PFAA level ([2]; Management Office, length of service < 1 year): 8.5
Serum PFAA level ([2]; Management Office, length of service >3 years): 186
Serum concentration, mean ([2]; Management office, N 92): 331 ng/mL
Serum concentration, median ([2]; Management office, N 92): 169 ng/mL
Serum PFAA level ([2]; Research Building, length of service 1-3 years): 946
Serum PFAA level ([2]; Research Building, length of service < 1 year): 26
Serum PFAA level ([2]; Research Building, length of service >3 years): 607
Serum concentration, mean ([2]; Research building, N 27): 842 ng/mL
Serum concentration, median ([2]; Research building, N 27): 506 ng/mL
Serum concentration, range ([2]; Research building, N 27): 3.0 to 3360 ng/mL
Serum PFAA level ([2]; Sulfonation Department, length of service 1-3 years): 1477
Serum PFAA level ([2]; Sulfonation Department, length of service < 1 year): 1129
Serum PFAA level ([2]; Sulfonation Department, length of service >3 years): 3087
Serum concentration, mean ([2]; Sulfonation department, N 101): 3778 ng/mL
Serum concentration, median ([2]; Sulfonation department, N 101): 2250 ng/mL
Serum concentration, geometric mean ([2]; all occupational workers): 628 ng/mL
Average serum concentration (Average ± SD) ([2]; female workers, n 89): 1,044 ± 1718 ng mL^−1
concentration at 2009 calendar year ([2]; human, serum, 2009, 37 workers, read-out: Serum concentration in workers (decline estimate)): 455 ng/mL
concentration at 2010 calendar year ([2]; human, serum, 2010, 37 workers, read-out: Serum concentration in workers (decline estimate)): 366 ng/mL
concentration at 2008 calendar year ([2]; human, serum, other: occupational exposure, 46 workers sampled at least three times, 2008, read-out: Serum concentration, GM): 328 ng/mL
concentration at 2012 calendar year ([2]; human, serum, other: occupational exposure, 46 workers sampled at least three times, 2012, read-out: Serum concentration, GM): 1670 ng/mL
Average serum concentration (Average ± SD) ([2]; male workers, n 213): 2,191 ± 3,050 ng mL^−1
Serum concentration, GM ([2]; workers with service length 1–3 years): 521 ng/mL
Serum concentration, GM ([2]; workers with service length less than 1 year): 212 ng/mL
Serum concentration, GM ([2]; workers with service length more than 3 years): 830 ng/mL
Serum concentration, median [3]: 0.98 ng/mL
Shortest half-life in humans reported in previous studies [4]: 7.3 years
Half-life based on serum concentrations ([4]; humans): more than 5 years
Half-life (GM) ([4]; retired fluorochemical production workers): 7.3 years
Half-life by daily clearance (GM) ([4]; young females): 7.8 years
Annual drop of serum concentration ([5]; 2009 to 2010, 37 workers): 19%
half-life ([5]; human, k = average annual serum decline rate, no new inputs assumed, two time points): 1310 days
